Drawing on patent US11591341B2 (ALIGOS THERAPEUTICS, INC., priority 2019, dated 2023), this text covers EC50 for 18 molecules.

The structures appear in SMILES notation. A value given as a limit tells only on which side of the number the result lay.

The first assay deals with HBV. The assay is described as follows: HBV-DNA Antiviral Assay Using HepG2.2.15 Cells (extracellular HBV DNA by qPCR). The assay is classed as cell-based. To be noted: Hepatitis B virus, 168 h; HBV DNA inhibition, HepG2.2.15 cells, extracellular HBV DNA by qPCR on day 7; read-out: EC50. The procedure: The following assay procedure describes the HBV antiviral assay. This assay uses HepG2.2.15 cells, which have been transfected with HBV genome, and extracellular HBV DNA quantification as endpoint. Cell viability is assessed in parallel by measuring the intracellular ATP content using the CellTiter-Glo© reagent from Promega.
On day 0, HepG2.2.15 cells were seeded in 96-well plates at a density of 6.0×10^4 cells/well (0.1 mL/well). The cells were incubated at 37° C. and 5% CO2.
On day 1, the test articles were diluted and added to cell culture wells (8 concentrations, 4-fold dilution, in duplicate). GLS4, Tenofovir and Sorafenib were used as reference compounds. 100 μL of culture medium containing the compounds was added to the plate, and the final total volume per well was 200 μL. The final concentration of DMSO in the culture medium was 0.5%. The plate map of compound treatment is shown below. The cells were cultured at 37° C. and 5% CO2 for 3 days.
On day 4, the plates were refreshed with culture media with compounds.
On day 7, cell viability was assessed using the CellTiter-Glo, and the cell culture supernatants were collected for determination of HBV DNA by qPCR.
Extracellular DNA was isolated with QIAamp 96 DNA Blood Kit per the manufacturer's manual. HBV DNA was then quantified by qPCR with HBV specific primers and probes as specified in Table 1 using the FastStart Universal MasterMix from Roche on an ABI-7900HT. The PCR cycle program consisted of 95° C. for 10 min, followed by 40 cycles at 95° C. for 15 sec and 60° C. for 1 min.
A DNA standard was prepared by dilution of the pAAV2 HBV1.3 plasmid with concentrations ranging from 10 to 1×10^7 copies/μL and used to generate a standard curve by plotting Ct value vs. the concentration of the HBV plasmid DNA standard. The quantity of HBV DNA in each sample was determined by interpolating from the standard curve.
Cell viability was calculated as follows: % Cell viability=(luminescence value of test sample−average luminescence value of blank)/(average luminescence value of 0.5% DMSO control−average luminescence of blank)×100%. HBV DNA inhibition was calculated as follows: 100-(HBV DNA copy number of test sample−HBV DNA copy number of ETV)/HBV DNA copy number of 0.5% DMSO control−HBV DNA copy number of ETV)×100%. The CC50, EC50 and EC90 values were determined by dose-response curves fitted by GraphPad Prism using “log (agonist) vs. response—Variable slope”.
For orientation: Real-time PCR tracks product formation cycle by cycle.
By EC50 is commonly meant the midpoint of the concentration-response curve. `C[C@@H]1Cn2c(c(C(=O)N[C@H](C)c3ccccc3)n(-c3ccc(-n4cccn4)cc3)c2=O)CN1C(=O)c1ccc(Br)c(Cl)c1` (mixture of isomers) [Example 466, (6RS)-7-(4-bromo-3-chloro-benzoyl)-6-methyl-3-oxo-N-[(1R)-1-phenylethyl]-2-(4-pyrazol-1-ylphenyl)-6,8-dihydro-5H-imidazo[1,5-a]pyrazine-1-carboxamide]: the EC50 lay in the range of 0.5 to 5 µM. In the case of `C[C@H]1Cn2c(c(C(=O)NCc3ccccc3-c3ncccn3)n(-c3ccc(-n4cccn4)cc3)c2=O)CN1C(=O)c1ccc(Br)c(Cl)c1` (racemic) [Example 469, rac-(6S)-7-(4-bromo-3-chloro-benzoyl)-6-methyl-3-oxo-2-(4-pyrazol-1-ylphenyl)-N-[(2-pyrimidin-2-ylphenyl)methyl]-6,8-dihydro-5H-imidazo[1,5-a]pyrazine-1-carboxamide], the half-maximal effective concentration (EC50) was under 0.1 µM. The same measure, in the same setting: next, `O=C(Nc1ccc(F)c(Cl)c1)N1CCn2c(c3n(c2=O)CCN(Cc2ccccc2)C3=O)C1` [Example 16, 12-benzyl-N-(3-chloro-4-fluoro-phenyl)-8,13-dioxo-4,7,9,12-tetrazatricyclo[7.4.0.0^2,7]tridec-1-ene-4-carboxamide]: 0.5 to 5 µM; `C[C@@H](NC(=O)c1c2n(c(=O)n1-c1ccc(OC3CC3)cc1)CCN(C(=O)c1ccc(Br)c(Cl)c1)C2)c1ccccc1-n1cncn1` (stereo in doubt) [Example 472, 7-(4-bromo-3-chloro-benozyl)-2-[4-(cyclopropoxy)phenyl]-3-oxo-N-[rac-(1R)-1-[2-(1,2,4-triazol-1-yl)phenyl]ethyl]-6,8-dihydro-5H-imidazo[1,5-a]pyrazine-1-carboxamide]: 0.5 to 5 µM; `CC(C)NC(=O)c1c2n(c(=O)n1-c1ccccc1)CCN(C(=O)c1ccc(Br)c(Cl)c1)C2` [Example 12, 7-(4-bromo-3-chlorobenzoyl)-3-oxo-2-phenyl-N-(propan-2-yl)-2H,3H,5H,6H,7H,8H-imidazo[1,5-a]pyrazine-1-carboxamide]: over 5 µM. Still for that read-out and setting: next, `COc1ccc(CN2CCn3c(c4n(c3=O)CCN(C(=O)c3ccc(Br)c(F)c3)C4)C2=O)cc1` [Example 18, 12-(4-bromo-3-fluoro-benzoyl)-4-[(4-methoxyphenyl)methyl]-4,7,9,12-tetrazatricyclo[7.4.0.0^2,7]tridec-1-ene-3,8-dione]: over 5 µM; `O=C(NCc1ccccc1-c1ncccc1F)c1c2n(c(=O)n1-c1ccc(OC3CC3)cc1)CCN(C(=O)c1ccc(Br)c(Cl)c1)C2` [Example 465, 7-(4-bromo-3-chloro-benzoyl)-2-[4-(cyclopropoxy)phenyl]-N-[[2-(3-fluoro-2-pyridyl)phenyl)methyl]-3-oxo-6,8-dihydro-5H-imidazo[1,5-a]pyrazine-1-carboxamide]: 0.1 to 0.5 µM. Still for that read-out and setting: the figure for `C[C@H](NC(=O)c1c2n(c(=O)n1-c1ccc(OC3CC3)cc1)CCN(C(=O)c1ccc(Br)c(Cl)c1)C2)c1ccccc1-n1cncn1` (stereo in doubt) [Example 473, 7-(4-bromo-3-chloro-benzoyl)-2-[4-(cyclopropoxy)phenyl]-3-oxo-N-[rac-(1S)-1-[2-(1,2,4-triazol-1-yl)phenyl]ethyl]-6,8-dihydro-5H-imidazo[1,5-a]pyrazine-1-carboxamide] is over 5 µM; for `CN1CCCn2c(c3n(c2=O)CCN(C(=O)c2ccc(Br)c(Cl)c2)C3)C1=O` [Example 8, 2-(4-bromo-3-chlorobenzoyl)-11-methyl-1,2,3,4,8,9,10,11-octahydro-6H,12H-pyrazino[1′,2′:3,4]imidazo[1,5-a][1,4]diazepine-6,12-dione] it is over 5 µM. In the case of `CN1CCCn2c(c3n(c2=O)CCN(C(=O)Nc2ccc(F)c(Cl)c2)C3)C1=O` [Example 2, N-(3-chloro-4-fluorophenyl)-11-methyl-6,12-dioxo-1,3,4,8,9,10,11,12-octahydro-2H,6H-pyrazino[1′,2′:3,4]imidazo[1,5-a][1,4]diazepine-2-carboxamide], the EC50 is 0.5 to 5 µM. Same read-out and setting: the figure for `O=C(NCc1ccccc1-c1nccnn1)c1c2n(c(=O)n1-c1ccc(OC3CC3)cc1)CCN(C(=O)c1ccc(Br)c(Cl)c1)C2` [Example 463, 7-(4-bromo-3-chloro-benzoyl)-2-[4-(cyclopropoxy)phenyl]-3-oxo-N-[[2-(1,2,4-triazin-3-yl)phenyl]methyl]-6,8-dihydro-5H-imidazo[1,5-a]pyrazine-1-carboxamide] is 0.1 to 0.5 µM; for `O=C1NCCCn2c1c1n(c2=O)CCN(C(=O)c2ccc(Br)c(F)c2)C1` [Example 6, 2-(4-bromo-3-fluorobenzoyl)-1,2,3,4,8,9,10,11-octahydro-6H,12H-pyrazino[1′,2′:3,4]imidazo[1,5-a][1,4]diazepine-6,12-dione] it is over 5 µM.

For the molecule `COc1ccc(CNC(=O)c2c3n(c(=O)n2-c2ccccc2)CCN(C(=O)c2ccc(Br)c(Cl)c2)C3)cc1` [Example 13, 7-(4-bromo-3-chlorobenzoyl)-N-[(4-methoxyphenyl)methyl]-3-oxo-2-phenyl-2H,3H,5H,6H,7H,8H-imidazo[1,5-a]pyrazine-1-carboxamide], the EC50 lay within 0.5 to 5 µM. On to `COc1ccc(CN2CCn3c(c4n(c3=O)CCN(C(=O)c3ccc(Br)cc3)C4)C2=O)cc1` [Example 20, 12-(4-bromobenzoyl)-4-[(4-methoxyphenyl)methyl]-4,7,9,12-tetrazatricyclo[7.4.0.0^2,7]tridec-1-ene-3,8-dione], for which the 50% effective concentration (EC50) was over 5 µM. On the same count and under the same terms, next, `COc1ccc(CNC(=O)c2c3n(c(=O)n2Cc2ccccc2)CCN(C(=O)c2ccc(Br)c(Cl)c2)C3)cc1` [Example 14, 2-benzyl-7-(4-bromo-3-chlorobenzoyl)-N-[(4-methoxyphenyl)methyl]-3-oxo-2H,3H,5H,6H,7H,8H-imidazo[1,5-a]pyrazine-1-carboxamide]: over 5 µM; `Cc1cccnc1-c1ccccc1CNC(=O)c1c2n(c(=O)n1-c1ccc(OC3CC3)cc1)CCN(C(=O)c1ccc(Br)c(Cl)c1)C2` [Example 464, 7-(4-bromo-3-chloro-benzoyl)-2-[4-(cyclopropoxy)phenyl]-N-[[2-(3-methyl-2-pyridyl)phenyl]methyl]-3-oxo-6,8-dihydro-5H-imidazo[1,5-a]pyrazine-1-carboxamide]: 0.5 to 5 µM; `COc1ccc(CN2CCn3c(c4n(c3=O)CCN(C(=O)c3ccc(Br)c(Cl)c3)C4)C2=O)cc1` [Example 19, 12-(4-bromo-3-chloro-benzoyl)-4-[(4-methoxyphenyl)methyl]-4,7,9,12-tetrazatricyclo[7.4.0.0^2,7]tridec-1-ene-3,8-dione]: over 5 µM.

The assay is the same for the next values; noted with them: Hepatitis B virus, HepG2.2.15, 168 h.
Consider `O=C(Nc1ccc(F)c(Cl)c1)N1CCn2c(c3n(c2=O)CCCN(Cc2ccccc2)C3=O)C1` [Example 3, 11-benzyl-N-(3-chloro-4-fluorophenyl)-6,12-dioxo-1,3,4,8,9,10,11,12-octahydro-2H,6H-pyrazino[1′,2′:3,4]imidazo[1,5-a][1,4]diazepine-2-carboxamide], for which the EC50 is 0.1 to 0.5 µM.
